What was measured:
[1] = target: ACAT enzyme of rabbit liver microsomes; experiment: Inhibitory effect on ACAT enzyme (No.2), rabbit liver microsomes; type: biochemical; details: pH 7.4, 37° C., 60 minutes, Table 10
Experimental: (§1) 2) Inhibitory effect on ACAT (Acyl-CoA: cholesterol acyltransferase) enzyme (No.2)
(§2) [2-1] ACAT enzyme activities of rabbit liver and small intestine mucosa microsomes
(§3) A white male rabbit was fed with a […] cholesterol-containing food for four weeks and bleeding-slaughtered to extract its liver and small intestine. Microsomes of the liver and small intestine mucosa were prepared by the method of C. Marco et al. (Biochim. Biophys. Acta, 617, 458-471, 1980).
(§4) ACAT enzyme activities of the microsomes were determined by the method of J. G. Heider (J. Lipid Res., 24, 1127-1134, 1983). A test sample dissolved in 1% dimethylsulfoxide was added to a microsome fraction (100 μg), a phosphoric acid buffer (0.154M) having pH 7.4, 1-^14 C-oleoyl CoA (36 μM), dithiosleitol (2 mM) and bovine blood serum albumin (36 μg/ml). The reaction mixture adjusted to a final capacity of 0.5 ml was incubated at 37° C. for 60 minutes. A mixture (6 ml) of chloroform and methanol (2:1) was added and the reaction was stopped. Cholesterol oleate was extracted with chloroform and separated by thin-layer chromatography. ACAT enzyme activities of the microsome fractions were determined by radiation measurement.

[2] = target: T1, ACAT enzyme of rabbit small intestine mucosa microsomes (Oryctolagus cuniculus, UniProt G1SFD9); experiment: Inhibitory effect on ACAT enzyme (No.2), rabbit small intestine mucosa microsomes; type: biochemical; details: pH 7.4, 37° C., 60 minutes, Table 10
T1 construct: Microsomes of the liver and small intestine mucosa were prepared; from tissue; host or cells: small intestine mucosa microsomes of a cholesterol-fed white male rabbit
T1 sequence (G1SFD9 1-524): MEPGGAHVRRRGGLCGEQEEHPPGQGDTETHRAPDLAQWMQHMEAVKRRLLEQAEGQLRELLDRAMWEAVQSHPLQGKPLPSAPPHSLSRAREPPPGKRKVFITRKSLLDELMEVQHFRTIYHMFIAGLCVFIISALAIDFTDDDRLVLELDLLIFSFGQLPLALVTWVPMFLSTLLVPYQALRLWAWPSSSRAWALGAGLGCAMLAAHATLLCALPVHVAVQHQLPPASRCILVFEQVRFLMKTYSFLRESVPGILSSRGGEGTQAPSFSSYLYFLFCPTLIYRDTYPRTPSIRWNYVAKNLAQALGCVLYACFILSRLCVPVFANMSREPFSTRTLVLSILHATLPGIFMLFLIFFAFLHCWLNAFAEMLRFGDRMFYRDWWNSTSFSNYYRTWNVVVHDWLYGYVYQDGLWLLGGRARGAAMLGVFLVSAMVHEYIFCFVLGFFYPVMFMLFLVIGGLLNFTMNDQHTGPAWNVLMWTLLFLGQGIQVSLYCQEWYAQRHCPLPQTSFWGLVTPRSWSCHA
Experimental: as §1, §2, §3, §4

[3] = tested on: ACAT enzyme of human HepG2 cells; experiment: ACAT enzyme activity of human HepG2 cells (microsome fractions); type: biochemical; details: Table 11, read-out: IC50, inhibitory effect on ACAT enzyme activity, human HepG2
Experimental: as §4
(§5) [2-2] ACAT enzyme activities of human HepG2 and CaCo2 cells
(§6) Human HepG2 and CaCo2 cells purchased from ATCC (AMERICAN TYPE CULTURE COLLECTION) were used in this test.
(§7) Using RPMI 1640 medium for HepG2 and DMEM medium for CaCo2, HepG2 and CaCo2 cells were cultured with 40 ml of each medium containing 10% bovine blood serum, 50 I.U. of penicillin and 50 μg/ml of streptomycin in a 5% CO2 incubator at 37° C. The cells were then monolayer-culturedwith 80 ml of each medium containing […] of cholesterol and 5 μg/ml of 25-0H cholesterol in a 175 cm flask for 5 hours. The homogenizes of these cells were subjected to centrifugation at 105,000 g to collect microsome fractions. ACAT enzyme activities of the microsome fractions were determined by the above-mentioned method.

[4] = tested on: ACAT enzyme of human CaCo2 cells; experiment: ACAT enzyme activity of human CaCo2 cells (microsome fractions); type: biochemical; details: Table 11, read-out: IC50, inhibitory effect on ACAT enzyme activity, human CaCo2
Experimental: as §4, §5, §6, §7

[5] = tested on: serum cholesterol; experiment: Serum cholesterol lowering effect in rat having high cholesterol [3-2]; type: in vivo, SD-type (Sprague-Dawley) male rat; details: oral, once a day for the last 5 days, Tween 80 and saline suspension, Table 13
Experimental: [3-2] Using a rat having high cholesterol, compounds of the invention were tested for their serum cholesterol lowering effects by the following method. A 6-week-old SD-type (Sprague-Dawley) male rat was fed with food containing 1% of cholesterol, 0.5% of cholic acid and 5% of olive oil for 7 days. For the last 5 days, a test sample suspended in some drops of Tween 80 and saline was orally administered once a day. Four hours after the final administration, a blood sample was taken from celiac aorta of the rat under etherization. The total cholesterol in the serum of the test group was measured by the oxygen method and compared with that of the control group.

[6] = target: ACAT (Acyl-CoA: cholesterol acyltransferase) enzyme of rabbit liver microsome; experiment: Inhibitory effect on ACAT enzyme (No.1), rabbit liver microsome; type: biochemical; details: Table 9
Experimental: 1) Inhibitory effect on ACAT (Acyl-CoA: cholesterol acyltransferase) enzyme (No.1)
Compounds of the invention were tested for their inhibitory effects on ACAT enzyme of rabbit liver microsome by the method of J. G. Heider (J. of Lipid Res., vol. 24, 1127-1134, 1983). More specifically, the test was done by measuring the amount of labelled cholesterol oleate ester produced from oleic acid CoA (coenzyme A) labelled by radiation.

[7] = tested on: serum cholesterol; experiment: Serum cholesterol lowering effect in rat having high cholesterol [3-1]; type: in vivo, SD-type (Sprague-Dawley) male rat; details: oral, once a day for 5 days, dissolved in saline, Table 12
Experimental: 3) Cholesterol Lowering Effect
[3-1] Using a rat having high cholesterol, compounds of the invention were tested for their serum cholesterol lowering effects by the following method. A 6-week-old SD-type (Sprague-Dawley) male rat was fed with food containing 1% of cholesterol, 0.5% of cholic acid and 5% of olive oil for 2 days and then orally administered the food and a compound of the invention as dissolved in saline once a day for 5 days starting on day 3. Four hours after the final administration, a blood sample was taken. The total cholesterol in the serum of the test group was measured and compared with that of the control group.

CN(C)c1ccc(NC(=O)N(C[C@H]2CC[C@H](CN(C(=O)Nc3ccc(N(C)C)cc3)C3CCCCCC3)CC2)C2CCCCCC2)cc1 [Example 22, Trans-1,4-bis[[1-cycloheptyl-3-(4-dimethyaminophenyl)ureido]methyl]cyclohexane]
IC50 [1]: 83 nM | IC50 [2]: 18 nM | IC50 [3]: 0.32 nM | IC50 [4]: 0.22 nM | Cholesterol lowering effect, % (serum total cholesterol vs control group) ([5]; 1 mg/kg): 77.6% | Cholesterol lowering effect, % (serum total cholesterol vs control group) ([5]; 3 mg/kg): 97.2%

CN(C)c1ccc(NC(=O)N(C[C@H]2CC[C@H](CN(C(=O)Nc3ccc(N(C)C)cc3)C3CCCCC3)CC2)C2CCCCC2)cc1 [Example 12, Trans-1,4-bis[[1-cyclohexyl-3-(4-dimethylaminophenyl)ureido]methyl]cyclohexane]
IC50 [1]: 36 nM | IC50 [2]: 24 nM | IC50 [3]: 1.1 nM | IC50 [4]: 0.74 nM | Cholesterol lowering effect, % (serum total cholesterol vs control group) ([5]; 1 mg/kg): 96.2% | Cholesterol lowering effect, % (serum total cholesterol vs control group) ([5]; 3 mg/kg): 92.6%

O=C(Nc1ccc(N2CCCC2)cc1)N(C[C@H]1CC[C@H](CN(C(=O)Nc2ccc(N3CCCC3)cc2)C2CCCCC2)CC1)C1CCCCC1 [Example 14-1, Trans-1,4-bis[[1-cyclohexyl-3-(4-pyrrolidinophenyl)ureido]methyl]cyclohexan]
IC50 [1]: 180 nM | IC50 [2]: 140 nM | IC50 [3]: 0.4 nM | IC50 [4]: 0.8 nM | Cholesterol lowering effect, % (serum total cholesterol vs control group) ([5]; 1 mg/kg): 80.9% | Cholesterol lowering effect, % (serum total cholesterol vs control group) ([5]; 3 mg/kg): 96.2%

CC1CCC(N(C[C@H]2CC[C@H](CN(C(=O)Nc3ccc(N(C)C)cc3)C3CCC(C)CC3)CC2)C(=O)Nc2ccc(N(C)C)cc2)CC1 (relative stereo) [Example 28, Trans-1,4-bis[[3-(4-dimethylaminophenyl)-1-(4-methylcyclohexyl)ureido]methyl]cyclohexane]
IC50 [6]: 25 nM | IC50 [1]: 42 nM | IC50 [2]: 30 nM | IC50 [3]: 1.2 nM | IC50 [4]: 0.52 nM | Cholesterol lowering effect, % (serum total cholesterol vs control group) ([7]; 3 mg/kg): 106% | Cholesterol lowering effect, % (serum total cholesterol vs control group) ([7]; 10 mg/kg): 100% | Cholesterol lowering effect, % (serum total cholesterol vs control group) ([5]; 1 mg/kg): 70.2% | Cholesterol lowering effect, % (serum total cholesterol vs control group) ([5]; 3 mg/kg): 106.5%

O=C(Nc1ccc(N2CCCCC2)cc1)N(C[C@H]1CC[C@H](CN(C(=O)Nc2ccc(N3CCCCC3)cc2)C2CCCCC2)CC1)C1CCCCC1 [Example 13, Trans-1,4-bis[[1-cyclohexyl-3-(4-piperidinophenyl)ureido]methyl]cyclohexane]
IC50 [1]: 35 nM | IC50 [2]: 130 nM | IC50 [3]: 0.86 nM | IC50 [4]: 1.1 nM | Cholesterol lowering effect, % (serum total cholesterol vs control group) ([5]; 1 mg/kg): 76.8% | Cholesterol lowering effect, % (serum total cholesterol vs control group) ([5]; 3 mg/kg): 96.2%

CN(C)c1ccc(NC(=O)N(Cc2cccc(CN(C(=O)Nc3ccc(N(C)C)cc3)C3CCCCCC3)c2)C2CCCCCC2)cc1 [YM-17E, reference compound]
IC50 [6]: 23 nM | IC50 [1]: 23 nM | IC50 [3]: 9.6 nM | IC50 [4]: 14 nM | Cholesterol lowering effect, % (serum total cholesterol vs control group) ([7]; 3 mg/kg): 38% | Cholesterol lowering effect, % (serum total cholesterol vs control group) ([7]; 10 mg/kg): 91% | Cholesterol lowering effect, % (serum total cholesterol vs control group) ([5]; 3 mg/kg): 38.0%

CN(C)c1ccc(NC(=O)N(C[C@H]2CC[C@H](CN(C(=O)Nc3ccc(N(C)C)cc3)C3CCCCC3)CC2)C2CCCCC2)cc1 [Example 12-1, Trans-1,4-bis[[1-cyclohexyl-3-(4-dimethylaminophenyl)ureido]methyl]cyclohexane]
IC50 [1]: 78 nM | IC50 [2]: 29 nM | IC50 [3]: 1.5 nM | IC50 [4]: 1.5 nM | Cholesterol lowering effect, % (serum total cholesterol vs control group) ([5]; 1 mg/kg): 100.4% | Cholesterol lowering effect, % (serum total cholesterol vs control group) ([5]; 3 mg/kg): 108.3%

O=C(Nc1ccc(N2CCCCCC2)cc1)N(C[C@H]1CC[C@H](CN(C(=O)Nc2ccc(N3CCCCCC3)cc2)C2CCCCC2)CC1)C1CCCCC1 [Example 14-2, Trans-1,4-bis[[1-cyclohexyl-3-(4-homopiperidinophenyl)ureido]methyl]cyclohexane]
IC50 [1]: 62 nM | IC50 [2]: 52 nM | IC50 [3]: 0.27 nM | IC50 [4]: 1.6 nM

Source: patent US5733931A, “Cyclohexanediurea derivative and process for its production” (Nissin Food Products Co., Ltd., priority 1993, dated 1998)
